# According to patent EP4755396A1, “TREATMENT OF P53 GENE MUTATION OR DEFECT NEGATIVE CANCER AND TUMOR PATIENTS” (Ascentawits Pharmaceuticals, Ltd., priority 2023, dated 2025):
# Where two headings read alike, the source gives them in different places. Peptide text beside a SMILES is read from it. * marks the point of attachment. Cbz = O=C(OCc1ccccc1)*
# Legend:
# H460 cells = test: In vitro cell proliferation inhibition under normoxia (96-well, CTG, 72 hours); type: cell-based, human; settings: for inhibition at 0.025 µM / inhibition at 0.05 µM: NCI-H460, H460 cells; for inhibition at 0.025 µM: RITA 0.025 µM; for inhibition at 0.05 µM: RITA 0.05 µM
# Description: Overview of the experimental process • 1) H460 cell suspension was added to a 96-well plate at 100 µL per well, with a cell density of 2000 /well. • 2) The cells were cultured overnight in an incubator at 37°C, 5% CO2. • 3) Compound Treatment
# Monotherapy: After 24 hours of cell plating, each well was supplied with 99.5 µL of growth medium then added with 0.5µL of test compounds at different concentrations, shaken gently to ensure even mixing, and then placed at 37°C, 5% CO2 in an incubator.
# (§1) Combination therapy: After 24 hours of cell plating, each well was supplied with 99 µL of growth medium then added with 0.5µL of the combined action compound Nutlin-3, shaken gently to ensure even mixing, and then placed in an incubator for 2 hours. Then each well was added with 0.5µL of test compounds at different concentrations, shaken gently to ensure even mixing, and then placed at 37°C, 5% CO2 in an incubator.
# (§2) 4) The cell plate was placed in the incubator for 72 hours.
# (§3) 5) The cell plate to be tested was placed at room temperature to equilibrium for 30 minutes, and 100µL of medium was discarded per well.
# (§4) 6) 25µL of CTG reagent was added to each well, placed at a fast shaker to shake for 2 minutes, and placed at room temperature away from light for 30 minutes.
# (§5) 7) The chemiluminescence signal value was read using a multifunctional microplate reader with a reading time of 1000 ms.
# 8) IC50 was calculated with Graph Pad Prism 5 software.
# (§6) • 1) H460 and HPAF-II cell suspensions were added to a 96-well plate at 100 µL per well, with a cell density of 2000 /well and 20000/well, respectively. • 2) The cells were cultured overnight in an incubator at 37°C, 5% CO2. • 3) Compound Treatment
# (§7) Combination therapy: After 24 hours of cell plating, 99 µL of growth medium was supplied to each well. Each well was added with 0.5 µL of Nutlin-3 or RITA, shaken gently to ensure even mixing, and then placed in an incubator for 2 hours. Then each well was added with 0.5µL of test compounds at different concentrations, shaken gently to ensure even mixing, and then placed at 37°C, 5% CO2 in an incubator.
# (§8) Monotherapy: After 24 hours of cell plating, 99.5 µL of growth medium was supplied to each well. Then each well was added with 0.5µL of test compounds at different concentrations, shaken gently to ensure even mixing, and then placed at 37°C, 5% CO2 in an incubator.
# (§9) 7) The chemiluminescence signal value was read using a multifunctional microplate reader with a reading time of 1000 ms. The corresponding inhibition rate data were calculated.
# (§10) • 1) NCI-H460, NCI-H460 P53KO # 1 cell suspensions were added to a 96-well plate at 100 µL per well, with a cell density of 2000 /well. • 2) The cells were cultured overnight in an incubator at 37°C, 5% CO2. • 3) Compound Treatment
# as §1, with “plating,” for “plating, each well was supplied with”, “of” for “of growth”, “medium was supplied to each well. Each well was” for “medium then”, “of” for “of the”, “action compound,” for “action compound Nutlin-3,”
# (§11) 8) The ICso (half maximal inhibitory concentration) values were calculated using GraphPad Prism 5 software.
# H460 P53 KO #1 = test: In vitro cell proliferation inhibition under normoxia, p53 knockout cells; type: cell-based, human
# Description: The p53 CRISPR/Cas9 KO plasmid (human) and p53 HDR plasmid (human) were purchased from Santa Cruz Company to construct H460 P53 KO cell lines, namely p53 knockout (KnockOut) H460 cell lines. Three groups of H460 P53 KO cell lines were constructed with numbers of H460 P53 KO # 1, H460 P53 KO # 7, and H460 P53 KO # 12.
# After co-incubation for 15 minutes, they were added dropwise to the culture medium and mixed well.
# After 48 h, 2 µg/mL puromycin was added for screening.
# When the cell colonies grew to a sufficient size, single colonies were picked and cultured.
# When the cell number reached a sufficient quantity, samples were collected for WB identification of the colonies.
# H460 P53 KO cell lines, i.e. H460 P53 KO # 1, H460 P53 KO # 7, H460 P53 KO # 12 cell lines were used in experiments, respectively.
# as §10, §8
# as §1, with “plating,” for “plating, each well was supplied with”, “of” for “of growth”, “medium was supplied to each well. Each well was” for “medium then”, “of” for “of the”, “action compound,” for “action compound Nutlin-3,”
# as §2, §3, §4, §5, §11
# HPAF-II cells = test: In vitro cell proliferation inhibition (96-well, CTG, 72 hours); type: cell-based; settings: Homo sapiens, HPAF-II cells, 72 hours; for inhibition at 2.5 µM: RITA 2.5 µM; for inhibition at 5 µM: RITA 5 µM
# Description: as §6, §7, §8, §2, §3, §4, §9
# [1] = tested on: RAD51 protein in H460 cells; test: WB detection of RAD51 protein amount, degradation and half-life; type: cell-based; settings: 0.1-1 nM AST-3424, 5 µM Nutlin-3, 5 µM MG-132, 24 hours (Figures 14-17)
# Description: In the first, the second and the third experiments of the effect of AST-3424 in combination with Nutlin-3 on Ser15-p53, Ser20-p53, Total p53, MDM2 and p21 proteins in H460 cells in example 5, the applicant also performed WB detection of RAD51 protein, with the results shown in Figures 14, 15 and 16.
# • 1) H460 cell suspension was added to a 24-well plate, with a cell density of 100000 /well and 995 µL of medium per well. • 2) The cells were cultured overnight in an incubator at 37°C, 5% CO2. • 3) Compound Treatment
# Monotherapy: After 24 hours of cell plating, each well was supplied with 5µL of test compounds at different concentrations: 1% DMSO, 0.1nM AST-3424 and 5 µM Nutlin-3, shaken gently to ensure even mixing, and then placed at 37°C, 5% CO2 in an incubator. After continuing culture for 24 hours, the cells were collected.
# Combination therapy: After 24 hours of cell plating, • Adding 0.1 nM AST-3424 for pre-treatment for 2 hours, and then adding 5 µM Nutlin-3 for co-treatment for 22 hours; • Adding 1% DMSO and 5 µM MG-132 for co-treatment for 24 hours; • Adding 0.1 nM AST-3424 and 5 µM MG-132 for co-treatment for 24 hours; • Adding 5 µM Nutlin-3 and 5 µM MG-132 for co-treatment for 24 hours; • Adding 0.1 nM AST-3424 for pre-treatment for 2 hour, and then adding 5 µM Nutlin-3 for treatment for 16 hours, and then adding 5µM MG-132 for co-treatment for 6 hours. […]
compound,measurement,setting,value
CN(C)C(=O)c1cccc(Oc2cc3c(cc2[N+](=O)[O-])OCCC3OP(=O)(N2CC2)N2CC2)c1 (centres unmarked) [Compound C],IC50,"H460 cells; Homo sapiens, NCI-H460, 72 h, NCI-H460, normoxia, 72 hours, alone or with 3 µM AST-3021 as labelled (Example 13)",2.05 nM
same,"Ratio, combination therapy/ monotherapy","H460 cells; IC50 ratio, NCI-H460, + 3 µM AST-3021 versus alone (Example 13)",305.37
same,"Ratio, Compound C/AST-3424","H460 cells; IC50 ratio, NCI-H460, monotherapy",4.77
same,IC50,"H460 P53 KO #1; Homo sapiens, NCI-H460, 72 h, NCI-H460 P53KO # 1, normoxia, 72 hours, alone or with 3 µM AST-3021 as labelled (Example 13)",36.1 nM
same,"Ratio, combination therapy/ monotherapy","H460 P53 KO #1; IC50 ratio, NCI-H460 P53KO # 1, + 3 µM AST-3021 versus alone (Example 13)",43.24
same,"Ratio, Compound C/AST-3424","H460 P53 KO #1; IC50 ratio, NCI-H460 P53KO # 1, monotherapy",6.62
same,"Ratio, knockout / wild","H460 P53 KO #1; IC50 ratio, NCI-H460 P53KO # 1 versus NCI-H460, monotherapy (Example 13)",17.60
OCc1ccc(-c2ccc(-c3ccc(CO)s3)o2)s1 [RITA],inhibition at 0.025 µM,"H460 cells; Homo sapiens, 72 hours, AST 0.5 nM, AST + RITA 0.5+0.025, read-out: Inhibition rate result, experimental group 1",22.3%
same,inhibition at 0.05 µM,"H460 cells; Homo sapiens, 72 hours, AST 0.5 nM, AST + RITA 0.5+0.05, read-out: Inhibition rate result, experimental group 2",22.4%
same,inhibition at 0.025 µM,"H460 cells; Homo sapiens, 72 hours, AST 1.5 nM, AST + RITA 1.5+0.025, read-out: Inhibition rate result, experimental group 3",22.3%
same,inhibition at 0.05 µM,"H460 cells; Homo sapiens, 72 hours, AST 1.5 nM, AST + RITA 1.5+0.05, read-out: Inhibition rate result, experimental group 4",22.4%
same,inhibition at 2.5 µM,"HPAF-II cells; AST 60 nM, AST + RITA 60+2.5, read-out: Inhibition rate, experimental group 1",2.86%
same,inhibition at 5 µM,"HPAF-II cells; AST 60 nM, AST + RITA 60+5, read-out: Inhibition rate, experimental group 2",5.56%
same,inhibition at 2.5 µM,"HPAF-II cells; AST 200 nM, AST + RITA 200+2.5, read-out: Inhibition rate, experimental group 3",2.86%
same,inhibition at 5 µM,"HPAF-II cells; AST 200 nM, AST + RITA 200+5, read-out: Inhibition rate, experimental group 4",5.56%
same,inhibition at 2.5 µM,"HPAF-II cells; AST 1667 nM, AST + RITA 1667+2.5, read-out: Inhibition rate, experimental group 5",2.86%
same,inhibition at 5 µM,"HPAF-II cells; AST 1667 nM, AST + RITA 1667+5, read-out: Inhibition rate, experimental group 6",5.56%
same,inhibition at 2.5 µM,"HPAF-II cells; AST 5000 nM, AST + RITA 5000+2.5, read-out: Inhibition rate, experimental group 7",2.86%
same,inhibition at 5 µM,"HPAF-II cells; AST 5000 nM, AST + RITA 5000+5, read-out: Inhibition rate, experimental group 8",5.56%
CC(C)C[C@@H](C=O)NC(=O)[C@H](CC(C)C)NC(=O)[C@H](CC(C)C)NC(=O)OCc1ccccc1 [MG-132] (Cbz-Leu-Leu-Leu-aldehyde),RAD51 protein amount (WB),[1],reversed the downregulation of RAD51 protein
